# According to patent US8071383B2, “D-amino acid selection for soybean” (BASF Plant Science GmbH, priority 2006, dated 2011):
# Assays:
# Assay type in all cases: cell-based, Glycine max
# soybean explants = test: SELDA selection and co-cultivation hormones, transformation efficiency; details: for Ave TE (%) / Confirmed events / TE range (%): vector RLM407, D-serine selection
# Experimental: In the first experiment, the experimental design included 10 repetitions over time (cutting experiments by 3 researchers) with 4 different co-cultivation media (treatments) per repetition and a minimum of 50 explants per treatment. Solid co-cultivation was prepared as stated earlier except the hormone, BAP, was replaced with one of the 4 following hormones: 7.5 μM BAP, 1.0 μM kinetin, 5.0 μM kinetin, or 7.5 μM kinetin. In the second experiment, the experimental design included 3 repetitions over time (cutting experiments by 1 researcher) with 5 different co-cultivation media (treatments) per repetition and a minimum of 50 explants per treatment. Solid co-cultivation was prepared by replacing BAP with one of the 5 following hormones: 7.5 μM BAP, 1.0 μM kinetin, 3 μM kinetin, 5 μM kinetin, or 7 μM kinetin.
# For both experiments, explants were prepared, inoculated with 50 mL of liquid co-cultivation medium containing SHA017/pSB1 carrying vector RLM407 for 30 minutes, and then randomly placed onto 1 of 4 or 5 solid co-cultivation media treatments, respectively. The protocol was followed as stated above with the D-serine selection regime: one week on shoot induction without selection, 3 weeks on shoot induction medium with 7.5 mM D-serine, then 5 mM D-serine throughout shoot elongation. Only one shoot per explant was removed to eliminate regeneration of clones. Putative transformants were confirmed for the presence of the dsda gene using quantitative PCR (TaqMan) and the transformation efficiency (TE) was calculated using the formula: [(number of dsda positive TaqMan confirmed independent events/total number of explants inoculated (n))*100].
# [1] = tested on: soybean primary node explants inoculated with REW008; test: D-alanine and D-alanine/D-serine killing curves using primary node explants; details: for D-alanine Kill Curve-regeneration (%) after 3 weeks on SIM: Experiment 1; for D-alanine + 7.5 mM D-serine Kill Curve-regeneration (%) after 3 weeks on SIM: Experiment 2
# Experimental: Kill curves for D-alanine selection with and without 7.5 mM D-serine were conducted for future experiments using dao1 as a selectable marker gene. The combination of using D-alanine and D-serine was also performed for the dao1 gene which can metabolize both D-alanine and D-serine. The binary plasmids RET019 (Pactin-dao1, Pubi-gus) and REW008 (Pnos-bar, Pubi-gus) were used as a positive and a negative control, respectively, and the T-DNA mobilized into soybean using Agrobacterium rhizogenes strain SHA017pSB1.
# Explants were inoculated with Agrobacterium, co-cultivated for 5 days, then moved onto shoot induction medium with or without selection for one week. After that time, explants were transferred onto new SIM with selection.
# In experiment 1, D-alanine was added to the SIM medium at the following concentrations: 0, 3, 7.5, 10, 20, 30, and 50 mM.
# In experiment 2, D-alanine was added in the same concentrations with 7.5 mM D-serine.
# The experimental design was as follows: T(treatment)1: 7 explants inoculated with REW008 with 1 week recovery; T2: 7 explants inoculated with REW008 with no recovery; The results of the experiment are shown in Table 2b. […] This drop was not seen on explants with recovery until 20 mM D-alanine. When in combination with D-serine, the explants do have reduced regeneration at lower concentrations, between 7.5 and 10 mM.
# [2] = tested on: non-Agrobacterium infected soybean axillary meristem explants; test: Killing curve for D-serine toxicity on non-inoculated seedling axillary meristem explants; details: 60 mM D-serine in SIM, 4 weeks
# Experimental: Killing curves for D-serine toxicity on non-Agrobacterium infected soybean tissues were performed on axillary meristem explants. Thirty explants were prepared as described above in example 1 and cultured on SIM containing either 0 mM, 3 μM, 30 μM, 300 μM, 3 mM, 30 mM, or 60 mM D-serine for a total of 4 weeks. After this time, the percent of explants with new shoot primordia, i.e. appearance of multiple shoots, were counted. In this experiment, a reduction in regeneration occurred between 3 and 30 mM and only 30% regeneration on explants exposed to 60 mM D-serine was seen (FIG. 1).
# [3] = tested on: soybean axillary meristem explants, Dairyland cultivar 98043; test: Kill curve with D-serine on inoculated axillary meristem explants (shoot induction and elongation)
# Experimental: In order to establish an effective level of selection during shoot induction and elongation a broad range of D-Serine concentrations was initially explored. Soybean axillary meristem explants were prepared from 7 day-old-seedlings from the Dairyland cultivar 98043, as described above in Examples 1 and 3.
# Agrobacterium rhizogenes strain SHA017 with the Super Vir pSB1 plasmid and containing the binary plasmids pRET017 or pREW008 were prepared as described in example 2. pRET017 contains nosP-c-dsdA/na-nosT and pPcUBI-gusINT-nosT (Example 9). pREW008 contains nosP-bar-nosT and pPcUBI-gusINT-nosT and was used as a control vector (Example 9).
# Explants were handled as described above in example 4. After one week on shoot induction medium (SIM) medium with no selection, explants were transferred to SIM medium containing various concentrations of D-serine ranging from 0 to 15 to 30 to 45 mM. All regenerating explants (shoot pads) were transferred to shoot elongation media (SEM) containing 3 mM D-serine after three and six weeks of incubation. Elongating shoots were transferred to rooting medium (RM) medium and screened by GUS expression and Taqman analysis.
# [4] = Table 6 (experiment 1), 7.5 uM BAP in co-cultivation medium
# [5] = Table 7 (experiment 2), 7.5 uM BAP in co-cultivation medium
# [6] = Table 6 (experiment 1), 1 uM Kinetin in co-cultivation medium
# [7] = Table 6 (experiment 1), 5 uM Kinetin in co-cultivation medium
# [8] = Table 6 (experiment 1), 7.5 uM Kinetin in co-cultivation medium
# [9] = Table 7 (experiment 2), 1 uM Kinetin in co-cultivation medium
# [10] = Table 7 (experiment 2), 3 uM Kinetin in co-cultivation medium
# [11] = Table 7 (experiment 2), 5 uM Kinetin in co-cultivation medium
# [12] = Table 7 (experiment 2), 7 uM Kinetin in co-cultivation medium
structure (smiles),measurement,setting,value
"c1ccc(CNc2ncnc3nc[nH]c23)cc1 [BAP, 6-benzylaminopurine]",Ave TE (%),soybean explants; [4],0.4%
same,Confirmed events,soybean explants; [4],3
same,TE range (%),soybean explants; [4],0-2.5%
same,Ave TE (%),soybean explants; [5],1.3%
same,Confirmed events,soybean explants; [5],3
same,TE range (%),soybean explants; [5],0-2.5%
C[C@@H](N)C(=O)O [D-alanine],D-alanine Kill Curve-regeneration (%) after 3 weeks on SIM,"[1]; 3 mM D-alanine, T1: REW008 with 1 week recovery",100%
same,D-alanine Kill Curve-regeneration (%) after 3 weeks on SIM,"[1]; 3 mM D-alanine, T2: REW008 with no recovery",71%
same,D-alanine Kill Curve-regeneration (%) after 3 weeks on SIM,"[1]; 7.5 mM D-alanine, T1: REW008 with 1 week recovery",100%
same,D-alanine Kill Curve-regeneration (%) after 3 weeks on SIM,"[1]; 7.5 mM D-alanine, T2: REW008 with no recovery",86%
same,D-alanine Kill Curve-regeneration (%) after 3 weeks on SIM,"[1]; 10 mM D-alanine, T1: REW008 with 1 week recovery",100%
same,D-alanine Kill Curve-regeneration (%) after 3 weeks on SIM,"[1]; 10 mM D-alanine, T2: REW008 with no recovery",71%
same,D-alanine Kill Curve-regeneration (%) after 3 weeks on SIM,"[1]; 20 mM D-alanine, T1: REW008 with 1 week recovery",100%
same,D-alanine Kill Curve-regeneration (%) after 3 weeks on SIM,"[1]; 20 mM D-alanine, T2: REW008 with no recovery",27%
same,D-alanine Kill Curve-regeneration (%) after 3 weeks on SIM,"[1]; 30 mM D-alanine, T1: REW008 with 1 week recovery",29%
same,D-alanine Kill Curve-regeneration (%) after 3 weeks on SIM,"[1]; 30 mM D-alanine, T2: REW008 with no recovery",0%
same,D-alanine Kill Curve-regeneration (%) after 3 weeks on SIM,"[1]; 50 mM D-alanine, T1: REW008 with 1 week recovery",0%
same,D-alanine Kill Curve-regeneration (%) after 3 weeks on SIM,"[1]; 50 mM D-alanine, T2: REW008 with no recovery",0%
same,D-alanine + 7.5 mM D-serine Kill Curve-regeneration (%) after 3 weeks on SIM,"[1]; 3 mM D-alanine + 7.5 mM D-serine, T1: REW008 with 1 week recovery",100%
same,D-alanine + 7.5 mM D-serine Kill Curve-regeneration (%) after 3 weeks on SIM,"[1]; 3 mM D-alanine + 7.5 mM D-serine, T2: REW008 with no recovery",100%
same,D-alanine + 7.5 mM D-serine Kill Curve-regeneration (%) after 3 weeks on SIM,"[1]; 7.5 mM D-alanine + 7.5 mM D-serine, T1: REW008 with 1 week recovery",100%
same,D-alanine + 7.5 mM D-serine Kill Curve-regeneration (%) after 3 weeks on SIM,"[1]; 7.5 mM D-alanine + 7.5 mM D-serine, T2: REW008 with no recovery",71%
same,D-alanine + 7.5 mM D-serine Kill Curve-regeneration (%) after 3 weeks on SIM,"[1]; 10 mM D-alanine + 7.5 mM D-serine, T1: REW008 with 1 week recovery",71%
same,D-alanine + 7.5 mM D-serine Kill Curve-regeneration (%) after 3 weeks on SIM,"[1]; 10 mM D-alanine + 7.5 mM D-serine, T2: REW008 with no recovery",57%
same,D-alanine + 7.5 mM D-serine Kill Curve-regeneration (%) after 3 weeks on SIM,"[1]; 20 mM D-alanine + 7.5 mM D-serine, T1: REW008 with 1 week recovery",57%
same,D-alanine + 7.5 mM D-serine Kill Curve-regeneration (%) after 3 weeks on SIM,"[1]; 20 mM D-alanine + 7.5 mM D-serine, T2: REW008 with no recovery",0%
same,D-alanine + 7.5 mM D-serine Kill Curve-regeneration (%) after 3 weeks on SIM,"[1]; 30 mM D-alanine + 7.5 mM D-serine, T1: REW008 with 1 week recovery",0%
same,D-alanine + 7.5 mM D-serine Kill Curve-regeneration (%) after 3 weeks on SIM,"[1]; 30 mM D-alanine + 7.5 mM D-serine, T2: REW008 with no recovery",14%
same,D-alanine + 7.5 mM D-serine Kill Curve-regeneration (%) after 3 weeks on SIM,"[1]; 50 mM D-alanine + 7.5 mM D-serine, T1: REW008 with 1 week recovery",0%
same,D-alanine + 7.5 mM D-serine Kill Curve-regeneration (%) after 3 weeks on SIM,"[1]; 50 mM D-alanine + 7.5 mM D-serine, T2: REW008 with no recovery",0%
same,D-alanine concentration at which the regeneration frequency drops below 70%,[1]; explants exposed immediately after co-cultivation,30 mM
same,D-alanine concentration at which the regeneration frequency drops below 70%,[1]; explants with recovery,20 mM
N[C@H](CO)C(=O)O [D-serine],percent of explants with new shoot primordia (regeneration),[2],30%
same,shoot elongation,"[3]; 3 mM D-Ser in SEM, explants coming from 30 or 45 mM D-Ser during shoot induction",no shoot elongation
same,Percent of explants surviving after three weeks in shoot elongation (SEM) + 3 mM D-serine,"[3]; D-Ser in SIM 0 mM, RET017",82.8%
same,Percent of explants surviving after three weeks in shoot elongation (SEM) + 3 mM D-serine,"[3]; D-Ser in SIM 0 mM, REW008",94.7%
same,Percent of explants surviving after three weeks in shoot elongation (SEM) + 3 mM D-serine,"[3]; D-Ser in SIM 15 mM, RET017",74.1%
same,Percent of explants surviving after three weeks in shoot elongation (SEM) + 3 mM D-serine,"[3]; D-Ser in SIM 15 mM, REW008",72.1%
same,Percent of explants regenerating after 3 weeks in shoot induction (SIM) medium,"[3]; D-Ser in SIM 15 mM, explants inoculated with RET017 (nosP-dsdA)",78.1%
same,Percent of explants regenerating after 3 weeks in shoot induction (SIM) medium,"[3]; D-Ser in SIM 15 mM, explants inoculated with REW008 (control vector)",76.9%
same,Percent of explants surviving after three weeks in shoot elongation (SEM) + 3 mM D-serine,"[3]; D-Ser in SIM 30 mM, RET017",33.6%
same,Percent of explants surviving after three weeks in shoot elongation (SEM) + 3 mM D-serine,"[3]; D-Ser in SIM 30 mM, REW008",34.5%
same,Percent of explants regenerating after 3 weeks in shoot induction (SIM) medium,"[3]; D-Ser in SIM 30 mM, explants inoculated with RET017 (nosP-dsdA)",61.2%
same,Percent of explants regenerating after 3 weeks in shoot induction (SIM) medium,"[3]; D-Ser in SIM 30 mM, explants inoculated with REW008 (control vector)",55.3%
same,Percent of explants surviving after three weeks in shoot elongation (SEM) + 3 mM D-serine,"[3]; D-Ser in SIM 45 mM, RET017",4.9%
same,Percent of explants surviving after three weeks in shoot elongation (SEM) + 3 mM D-serine,"[3]; D-Ser in SIM 45 mM, REW008",2.6%
same,Percent of explants regenerating after 3 weeks in shoot induction (SIM) medium,"[3]; D-Ser in SIM 45 mM, explants inoculated with RET017 (nosP-dsdA)",25.5%
same,Percent of explants regenerating after 3 weeks in shoot induction (SIM) medium,"[3]; D-Ser in SIM 45 mM, explants inoculated with REW008 (control vector)",21.9%
same,shoot elongation,[3]; explants exposed to 15 mM D-Ser during shoot induction,Few shoots elongated
same,D-alanine + 7.5 mM D-serine Kill Curve-regeneration (%) after 3 weeks on SIM,"[1]; 0 mM D-alanine + 7.5 mM D-serine, T1: REW008 with 1 week recovery",100%
same,D-alanine + 7.5 mM D-serine Kill Curve-regeneration (%) after 3 weeks on SIM,"[1]; 0 mM D-alanine + 7.5 mM D-serine, T2: REW008 with no recovery",100%
c1coc(CNc2ncnc3[nH]cnc23)c1 [Kinetin],Ave TE (%),soybean explants; [6],1.4%
same,Confirmed events,soybean explants; [6],10
same,TE range (%),soybean explants; [6],0-6.4%
same,Ave TE (%),soybean explants; [7],2.3%
same,Confirmed events,soybean explants; [7],9
same,TE range (%),soybean explants; [7],0-4.2%
same,Ave TE (%),soybean explants; [8],2.7%
same,Confirmed events,soybean explants; [8],19
same,TE range (%),soybean explants; [8],0-9.8%
same,Ave TE (%),soybean explants; [9],3.7%
same,Confirmed events,soybean explants; [9],8
same,TE range (%),soybean explants; [9],1.3-8.1%
same,Ave TE (%),soybean explants; [10],2.5%
same,Confirmed events,soybean explants; [10],6
same,TE range (%),soybean explants; [10],2.3-2.7%
same,Ave TE (%),soybean explants; [11],1.8%
same,Confirmed events,soybean explants; [11],4
same,TE range (%),soybean explants; [11],1.2-3%
same,Ave TE (%),soybean explants; [12],2.2%
same,Confirmed events,soybean explants; [12],5
same,TE range (%),soybean explants; [12],0-5.2%
same,average transformation efficiency with kinetin in the co-cultivation media compared with BAP,soybean explants; both experiments,higher average transformation efficiencies
